Test results: US10919885B2, “Compounds and uses thereof” (Yumanity Therapeutics, Inc., priority 2018, dated 2021)

What was measured:
human SCD1 = human SCD1 (Homo sapiens (Human), UniProt O00767); experiment: Yeast growth assay, strain expressing human SCD1 as the sole desaturase (reduced growth as surrogate for SCD inhibition); assay type: cell-based; conditions: yeast with OLE1 deleted expressing human SCD1 from a plasmid; growth read as OD600 after 40 h at 30° C.; top drug concentration 33.3 μM
Procedure, shortened: (§1)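 Yeast lacking OLE1 depend on plasmid-borne human SCD1 or SCD5 and are tested in SD-Ura medium without oleic/palmitoleic acid or Tween.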

human SCD5 = human SCD5 (Homo sapiens (Human), UniProt Q86SK9); experiment: Yeast growth assay, strain expressing human SCD5 as the sole desaturase (reduced growth as surrogate for SCD inhibition); assay type: cell-based; conditions: yeast with OLE1 deleted expressing human SCD5 from a plasmid; growth read as OD600 after 40 h at 30° C.; top drug concentration 33.3 μM
Procedure, shortened: as §1

human SCD1, sequence (O00767 whole entry): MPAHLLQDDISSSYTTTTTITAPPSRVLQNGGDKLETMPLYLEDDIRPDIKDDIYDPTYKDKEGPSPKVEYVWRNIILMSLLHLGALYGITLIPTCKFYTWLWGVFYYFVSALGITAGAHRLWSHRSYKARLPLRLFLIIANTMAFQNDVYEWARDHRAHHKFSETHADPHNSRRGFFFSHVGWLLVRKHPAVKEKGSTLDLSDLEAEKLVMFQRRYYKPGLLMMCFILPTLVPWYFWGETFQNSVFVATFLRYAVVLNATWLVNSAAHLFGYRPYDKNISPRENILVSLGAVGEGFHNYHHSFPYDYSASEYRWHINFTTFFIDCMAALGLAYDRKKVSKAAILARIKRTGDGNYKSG
human SCD5, sequence (Q86SK9 whole entry): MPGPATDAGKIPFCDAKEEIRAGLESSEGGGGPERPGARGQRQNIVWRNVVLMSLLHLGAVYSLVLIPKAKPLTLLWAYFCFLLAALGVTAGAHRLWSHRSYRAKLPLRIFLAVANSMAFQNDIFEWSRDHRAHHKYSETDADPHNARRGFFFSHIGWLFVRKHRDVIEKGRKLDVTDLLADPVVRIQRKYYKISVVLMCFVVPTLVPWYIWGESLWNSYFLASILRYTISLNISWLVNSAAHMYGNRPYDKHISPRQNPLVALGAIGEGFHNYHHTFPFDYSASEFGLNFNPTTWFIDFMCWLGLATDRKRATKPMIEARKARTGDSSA

| IC50 (human SCD1) [µM] | IC50 (human SCD5) [µM] | Structure (SMILES) |
| --- | --- | --- |
| > 45 | > 45 | O=C(Nc1cnn(Cc2ccccc2)c1)c1cc(-c2ccccc2)no1 [Compound 123] |
| > 45 | 15.7 | CN(Cc1cccc(F)c1)C(=O)c1cc(-c2ccccc2)on1 [Compound 9] |
| > 45 | > 45 | O=C(Nc1cnn(Cc2ccccc2Cl)c1)c1cc(-c2cccc3c2cnn3C2COC2)on1 [Compound 94] |
| > 45 | > 45 | O=C(Nc1ccccc1)C1CCCN1C(=O)c1cc(-c2ccc3c(c2)OCO3)on1 (stereo not shown) [Compound 455] |
| > 45 | > 45 | CN1CCN(c2cc(C(=O)Nc3cnn(Cc4ccccc4)c3)no2)CC1 [Compound 183] |
| > 45 | > 45 | O=C(c1cc(-c2ccc3c(c2)OCO3)on1)N1Cc2ccccc2C1 [Compound 328] |
| > 45 | > 45 | O=C(c1cc(-c2ccc3c(c2)OCO3)on1)N1COCC1c1ccccc1 (stereo not shown) [Compound 406] |
| > 45 | 33.1 | O=C(c1cc(-c2ccccn2)on1)N(Cc1ccc(F)c(F)c1)c1cnn(Cc2ccc(F)c(F)c2)c1 [Compound 62, N-(3,4-difluorobenzyl)-N-(1-(3,4-difluorobenzyl)-1H-pyrazol-4-yl)-5-(pyridin-2-yl)isoxazole-3-carboxamide] |
| > 45 | 1.13 | O=C(c1cc(-c2ccc3c(c2)OCO3)on1)N1CC(Cc2ccccc2)C1 [Compound 216, [5-(1,3-benzodioxol-5-yl)isoxazol-3-yl]-(3-benzylazetidin-1-yl)methanone] |
| > 45 | > 45 | O=C(Nc1cnn(Cc2ccccc2)c1)c1cc(-c2cncs2)no1 [Compound 131] |
| > 45 | > 45 | Cc1nn(C)c2cc(-c3cc(C(=O)N4CCCC4c4ccnnc4)no3)ccc12 (stereo not shown) [Compound 458] |
| > 45 | > 45 | O=C(c1cc(-c2ccc3c(c2)OCO3)on1)N1CCC(c2ccccc2)C1 (stereo not shown) [Compound 329] |
| 2.56 | 1.14 | O=C(c1cc(-c2ccco2)on1)N1CC(c2ccccc2)C1 [Compound 207, [5-(2-furyl)isoxazol-3-yl]-(3-phenylazetidin-1-yl)methanone] |
| 25.5 | > 45 | O=C(Nc1cnn(CC2CCOC2)c1)c1cc(-c2ccccc2)on1 (stereo not shown) [Compound 50] |
| 3.1 | 20 | O=C(Nc1cnn(Cc2cccc(F)c2)c1)c1cc(C2(O)CCC2)on1 [Compound 100] |
| 23.1 | > 45 | O=C(Nc1cnn(Cc2cccc(F)c2)c1)c1cc(-c2cnccn2)on1 [Compound 45] |
| 15.5 | 5.08 | O=C(c1cc(-c2cccnc2)on1)N1CC(c2ccccc2)C1 [Compound 234, (3-phenylazetidin-1-yl)(5-(pyridin-3-yl)isoxazol-3-yl)methanone, trifluoroacetic acid] |
| > 45 | > 45 | O=C(Nc1cnn(Cc2cc(F)ccc2C(F)(F)F)c1)c1cc(-c2ccccc2)on1 [Compound 74] |
| > 45 | > 45 | Cc1ccncc1Cn1cc(NC(=O)c2cc(-c3ccccc3F)on2)cn1 [Compound 172] |
| > 45 | > 45 | CC(C)c1cc(C(=O)N2CC(c3ccccc3)C2)no1 [Compound 250] |

| IC50 (human SCD1) [µM] | IC50 (human SCD5) [µM] | Structure (SMILES) |
| --- | --- | --- |
| > 45 | 3.8 | C=C(C)c1cc(C(=O)N2CCC3(CCc4c(F)cccc4O3)CC2)no1 [Compound 324] |
| > 45 | > 45 | O=C(Nc1noc(Cc2ccccc2)n1)c1cc(-c2ccccc2)on1 [Compound 79] |
| > 45 | > 45 | O=C(NC1CCN(Cc2ccccc2)CC1)c1cc(-c2ccco2)on1 [Compound 285] |
| 0.737 | 6.97 | O=C(Nc1cnn(Cc2cccc(F)c2)c1)c1cc(C2COC2)on1 [Compound 139, N-(1-(3-fluorobenzyl)-1H-pyrazol-4-yl)-5-(oxetan-3-yl)isoxazole-3-carboxamide] |
| > 45 | > 45 | NC(=O)c1cc(C(=O)Nc2cnn(Cc3ccccc3)c2)no1 [Compound 48] |
| > 45 | > 45 | O=C(c1cc(-c2ccc3c(c2)OCO3)on1)N1CCC(c2ccncc2)CC1 [Compound 293] |
| > 45 | > 45 | O=C(c1cc(-c2ccco2)on1)N1CC(F)C1 [Compound 244] |
| 32.4 | > 45 | O=C(c1cc(-c2ccc3ncnn3c2)on1)N1CCC[C@H]1c1ccccc1 [Compound 441] |
| > 45 | 0.95 | O=C(c1cc(-c2ccc3c(c2)OCO3)on1)N1CC2(C1)CC(O)(c1ccccc1)C2 [Compound 224] |
| > 45 | > 45 | O=C(c1cc(-c2ccc3c(c2)OCO3)on1)N1CCCC1c1ncccn1 (stereo not shown) [Compound 431] |
| > 45 | > 45 | COc1ccc(C2CCCN2C(=O)c2cc(-c3ccc4ocnc4c3)on2)cc1 (stereo not shown) [Compound 400] |
| 5.7 | 7 | O=C(Nc1cnn(Cc2ccccc2)c1)c1cc(-c2ccncc2)on1 [Compound 124, N-(1-benzyl-1H-pyrazol-4-yl)-5-(pyridin-4-yl)isoxazole-3-carboxamide] |
| > 45 | > 45 | Cc1cnc(-c2cc(C(=O)Nc3cnn(Cc4ccccc4)c3)no2)s1 [Compound 142] |
| > 45 | > 45 | CC1(c2cc(C(=O)Nc3cnn(Cc4cccc(F)c4)c3)no2)COC1 [Compound 116] |
| > 45 | > 45 | Cn1nc(Cc2ccc(Cl)c(Cl)c2)cc1NC(=O)c1cc(-c2ccco2)on1 [Compound 27] |
| > 45 | > 45 | O=C(c1cc(-c2ccc3c(c2)OCO3)on1)N1CCCC1c1ccccc1F (stereo not shown) [Compound 366] |
| > 45 | > 45 | O=C(c1cc(-c2ccc3c(c2)OCO3)on1)N1CCCC1c1ccncc1 (stereo not shown) [Compound 363] |
| > 45 | 2.79 | O=C(c1cc(-c2ccco2)on1)N1CCC(c2ccccc2)C1 (stereo not shown) [Compound 338] |
| > 45 | > 45 | Cn1ncc2cccc(C3CCCN3C(=O)c3cc(-c4ccc5c(c4)OCO5)on3)c21 (stereo not shown) [Compound 425] |
| > 45 | > 45 | Cc1nnc(-c2cc(C(=O)Nc3cnn(Cc4ccccc4)c3)no2)o1 [Compound 165] |

| IC50 (human SCD1) [µM] | IC50 (human SCD5) [µM] | Structure (SMILES) |
| --- | --- | --- |
| 37.2 | > 45 | O=C(c1cc(-c2ccc(=O)[nH]c2)on1)N1CCC[C@H]1c1ccccc1 [Compound 451] |
| > 45 | > 45 | O=C(Nc1ccccc1)C1CN(C(=O)c2cc(-c3ccccc3)on2)C1 [Compound 237] |
| > 45 | > 45 | N#Cc1cc(F)cc(Cn2cc(NC(=O)c3cc(-c4ccccc4)on3)cn2)c1 [Compound 98] |
| > 45 | 7.5 | O=C(c1noc2c1CCCC2)N1CC(c2ccccc2)C1 [Compound 252, 3-(3-phenylazetidine-1-carbonyl)-4,5,6,7-tetrahydro-1,2-benzoxazole] |
| > 45 | > 45 | CC(C)c1cc(C(=O)Nc2cc3ccccn3n2)no1 [Compound 176] |
| 30 | > 45 | O=C(c1cc(CC2CC2)on1)N1CCCC1c1ccccc1 (stereo not shown) [Compound 384] |
| > 45 | > 45 | O=C(c1cc(-c2ccc3c(c2)OCO3)on1)N1CCN(c2cccc(F)c2)CC1 [Compound 282] |
| > 45 | > 45 | O=C(Nc1cn(Cc2ccccc2)nn1)c1cc(-c2ccccc2)on1 [Compound 44] |
| > 45 | > 45 | Cc1csc(-c2cc(C(=O)Nc3cnn(Cc4ccccc4)c3)no2)n1 [Compound 143] |
| 6.97 | > 45 | O=C(Nc1cnn(Cc2ccccc2)c1)c1cc(-c2ccns2)on1 [Compound 126] |
| > 45 | > 45 | O=C(Nc1cnn(Cc2cccnc2)c1)c1cc(-c2ccccc2)on1 [Compound 39] |
| > 45 | 41.7 | O=C(c1noc2cc(Br)ccc12)N1CCC[C@H]1c1ccccc1 [Compound 449] |
| 3.33 | 1.55 | COc1ccc(-c2cc(C(=O)N3CC(c4cccc(F)c4)C3)no2)cc1OC [Compound 236] |
| > 45 | 4.87 | Cc1nn(Cc2ccc(Cl)c(Cl)c2)cc1NC(=O)c1cc(-c2ccco2)on1 [Compound 17, N-(1-(3,4-dichlorobenzyl)-3-methyl-1H-pyrazol-4-yl)-5-(furan-2-yl)isoxazole-3-carboxamide] |
| > 45 | > 45 | O=C(c1cc(-c2ccccc2)on1)N1CCC(O)(c2ccccc2)CC1 [Compound 296] |
| > 45 | > 45 | O=C(Nc1cnn(Cc2ccccc2)n1)c1cc(-c2ccccc2)on1 [Compound 52] |
| > 45 | > 45 | N#Cc1ccc(Cn2cc(NC(=O)c3cc(-c4ccccc4)on3)cn2)s1 [Compound 43] |
| > 45 | > 45 | CC(C)c1cc(C(=O)Nc2cnn(CC34CCC(CC3)CC4)c2)no1 [Compound 167] |
| 32.8 | 38.6 | Cc1nn(Cc2ccccc2)c(C)c1NC(=O)c1cc(-c2ccco2)on1 [Compound 2] |
| > 45 | > 45 | O=C(c1cc(-c2ccc3c(c2)OCO3)on1)N1CCCc2c(F)cccc21 [Compound 263] |

| Structure (SMILES) | IC50 (human SCD1) [µM] | IC50 (human SCD5) [µM] |
| --- | --- | --- |
| O=C(c1cc(-c2ccccc2)on1)N1CCC(c2ccccc2)CC1 [Compound 314, (5-phenylisoxazol-3-yl)(4-phenylpiperidin-1-yl)methanone] | > 45 | 1.63 |
| N#Cc1ccc(-c2cc(C(=O)N3CCC(c4ccccc4)CC3)no2)cc1 [Compound 316, 4-(3-(4-phenylpiperidine-1-carbonyl)isoxazol-5-yl)benzonitrile] | > 45 | 0.7 |
